The values that follow come from paper PMC12444508, “Mechanistic Insights into the Anticancer Action of Novel 2‑Hydroxy-1,4-naphthoquinone Thiol Derivatives” (ACS Omega, 2025).

“And” between values parts separate entries of the source, which are not always exact repeats. Equal values may be shown once. Read-outs that look alike come from different tables or passages of the source.

Data set [1] deals with SCC-9 cells (OSCC cells). As to the kind of experiment: MTT cell viability assay, SCC-9. Type of data set: cell-based, human. The following applies: for SI (SCC-9): IC50 normal oral fibroblast / IC50 SCC-9. The method, then:
(§1) Human SCC-4, SCC-9, and SCC-25 cells, derived from a human oral tongue SCC (squamous cell carcinoma), were obtained from ATCC (CRL-1624, CRL-1629, and CRL-1628, respectively) and maintained in 1:1 DMEM/F12 (Dulbecco’s modified Eagle’s medium and Ham’s F12 medium; Gibco (Thermo Fisher, Waltham, MA, USA)) supplemented with 10% (v/v) FBS (fetal bovine serum; Invitrogen, Thermo Fisher, Waltham, MA, USA) and 400 ng/mL hydrocortisone (Sigma-Aldrich Corporation, St. Louis, MO, USA). B16-F10 (melanoma; CRL-6475), HCT-116 (colorectal cancer; CCL-247), and HepG2 (liver cancer; HB-8065), in addition to primary normal human gingival fibroblasts obtained from ATCC (PCS-201-018), were maintained in DMEM supplemented with 10% (v/v) of FBS and were used in a maximum of six passages. Cells were grown in a humidified environment containing 5% CO2 at 37 °C. For all biological assays, compounds and shikonin were solubilized in 100% DMSO (all Sigma-Aldrich Corp.) to a final concentration of 10 mM and lapachol in ethanol. The carboplatin control was prepared in water (Fauldcarbo; Libbs Farmacêutica, São Paulo, SP, Brazil) and was used as a standard anticancer compound.
(§2) The viability of OSCC cell lines and primary human fibroblast cells was assessed using the MTT assay as in ref . Briefly, cells were grown in triplicate in 96-well plates (5 × 10^3 cells/well) until confluence. Then, the medium was removed, fresh medium was added, and the cells were returned to the incubator in the presence of different compounds. DMSO at the same concentration was used as a control for 100% cell viability. After 72 h, cells were incubated with 0.5 mg/mL of MTT reagent (3-(4,5-dimethyl-2-thiazolyl)-2,5-diphenyl-2-H-tetrazolium bromide) (Sigma-Aldrich Corporation, Louis, MO, USA) for 3.5 h. Then, the wells containing the cells were washed with PBS heated to 37 °C, the formazan crystals were dissolved in a solvent solution (DMSO/methanol 1:1 v/v), and the absorbance was read at 560 nm using an EPOCH microplate spectrophotometer (BioTek Instruments, Winooski, VT, USA) with the background absorbance at 670 nm subtracted. Control chemotherapeutics (carboplatin and shikonin) were used.
(§3) Data are presented as means ± SD. IC50 values for the MTT assays were obtained by nonlinear regression using the […] 8.4.3.0 program (Intuitive Software for Science, San Diego, CA, USA) from at least three independent experiments. A dose–response curve (inhibitor) vs response using the least-squares method was used to determine the IC50, SD, and R2 of the data. The selectivity index was calculated as SI = IC50 of the compound in normal oral fibroblast cells/IC50 of the same compound for each oral cancer cell line (SCC-4, SCC-9, and SCC-25) and averaged when indicated.
Background: Tetrazolium assays rely on reduction of a dye to a coloured formazan, in cell work by metabolically active cells.

The test system of data set [2] is primary normal human gingival fibroblasts. As to the kind of experiment: MTT cell viability assay, primary gingival fibroblasts. Type of data set: cell-based. The settings on record: 72 h, read-out: IC50 primary gingival fibroblast. How it is done:
as §1, §2, §3

Data set [3] relates to SCC-4 cells. As to the kind of experiment: MTT cell viability assay, SCC-4. Format: cell-based, human. The settings on record: for IC50: read-out: IC50 SCC-4. The method, then: as §1, §2, §3
The test system of data set [4] is SCC-25 cells. As to the kind of experiment: MTT cell viability assay, SCC-25. Format: cell-based, human. The settings on record: for IC50: read-out: IC50 SCC-25. The method, then: as §1, §2, §3
Data set [5] has as its system OSCC cell lines (SCC-4, SCC-9, and SCC-25). As to the kind of experiment: Average selectivity index over three OSCC cell lines (MTT). Format: cell-based, human. The settings on record: average of SI for SCC-4, SCC-9 and SCC-25 vs normal oral fibroblasts. The method, then:
as §1, §2, §3

The test system of data set [6] is HepG2 (liver cancer). As to the kind of experiment: MTT cytotoxicity/selectivity, HepG2. Type of data set: cell-based. The following applies: vs normal oral fibroblasts. The method, then:
as §1
as §2, with “DMSO at the same concentration was used as a control for 100% cell viability. After 72 h, cells were incubated with 0.5 mg/mL of MTT reagent (3-(4,5-dimethyl-2-thiazolyl)-2,5-diphenyl-2-H-tetrazolium bromide) (Sigma-Aldrich Corporation, Louis, MO, USA) for 3.5 h.” left out, “Control chemotherapeutics (carboplatin and shikonin) were used.” left out
(§4) Data are presented as means ± SD. […] The selectivity index was calculated as SI = IC50 of the compound in normal oral fibroblast cells/IC50 of the same compound for each oral cancer cell line (SCC-4, SCC-9, and SCC-25) and averaged when indicated.

In data set [7] the test system is B16-F10 (melanoma). As to the kind of experiment: MTT cytotoxicity/selectivity, B16-F10. Type of data set: cell-based. The settings on record: vs normal oral fibroblasts. The method, then: as §1
as §2, with “DMSO at the same concentration was used as a control for 100% cell viability. After 72 h, cells were incubated with 0.5 mg/mL of MTT reagent (3-(4,5-dimethyl-2-thiazolyl)-2,5-diphenyl-2-H-tetrazolium bromide) (Sigma-Aldrich Corporation, Louis, MO, USA) for 3.5 h.” left out, “Control chemotherapeutics (carboplatin and shikonin) were used.” left out
as §4

Data set [8] has as its system HCT-116 (colorectal cancer). As to the kind of experiment: MTT cytotoxicity/selectivity, HCT-116. The settings on record: vs normal oral fibroblasts. Type of data set: cell-based. How it is done: as §1
as §2, with “DMSO at the same concentration was used as a control for 100% cell viability. After 72 h, cells were incubated with 0.5 mg/mL of MTT reagent (3-(4,5-dimethyl-2-thiazolyl)-2,5-diphenyl-2-H-tetrazolium bromide) (Sigma-Aldrich Corporation, Louis, MO, USA) for 3.5 h.” left out, “Control chemotherapeutics (carboplatin and shikonin) were used.” left out
as §4

Data set [9] has as its system human erythrocytes. As to the kind of experiment: Hemolysis assay. The following applies: 500 μM; Triton X-100 positive control. Type of data set: cell-based. The method, then:
To determine the surfactant power of the substances present in biological membranes, a hemolysis test was carried out with human blood approved by the Research Ethics Committee of the Universidade Federal Fluminense (CAAE: 43134721.4.0000.5626). Erythrocytes were collected for centrifugation at 1500 rpm for 15 min, washed with PBS (phosphate-buffered saline) supplemented with 10 mM glucose, and counted in an automatic cell counter (Thermo Fisher, Waltham, MA, USA). […] In total, 10 μL of PBS was used as a negative control, and 10 μL of PBS with 0.1% Triton x 100 was used as a positive control. Data reading was performed with EPOCH (BioTek Instruments, Winooski, VT, USA) at an absorbance of 540 nm, and statistical data were generated using […] Prism 8.4.3.0 program (Intuitive Software for Science, San Diego, CA, USA).

Data set [10] concerns esophageal squamous carcinoma cells. Also on record: method as in PMID 31225674. The following applies: inhibits RSK2 and induces intrinsic apoptosis in esophageal squamous carcinoma cells; cited from earlier work.
Where [11] appears, read: Homo sapiens, SCC-9, 72 h, MTT, read-out: IC50 SCC-9 oral cancer.

For the molecule `CC1(C)OC2=C(C(=O)c3ccccc3C2=O)C(Sc2ccc(F)cc2)C1Sc1ccc(F)cc1` (centres unmarked) [7f, 3,4-Bis((4-fluorophenyl)thio)-2,2-dimethyl-3,4-dihydro-2H-benzo[g]chromene-5,10-dione], the half-maximal inhibitory concentration (IC50) (as a rule, the midpoint of a concentration-inhibition curve) came to 35.3 µM in data set [1] (setting [11]) and 40 µM in data set [2] (Homo sapiens, Fibroblast, MTT). In addition, in data set [1], the “SI (SCC-9)” value is given as 1.1.

Take `CC(C)=CC[C@@H](O)C1=CC(=O)c2c(O)ccc(O)c2C1=O` [Shikonin, shikonin, reference compound]: the IC50 is 2.1 µM in data set [1] (Homo sapiens, SCC-9, 72 h, read-out: IC50 SCC-9 oral cancer, 72 h, MTT); 1.6 µM in [3] (Homo sapiens, SCC-4, 72 h); 0.6 µM in data set [4] (Homo sapiens, SCC-25, 72 h); 2.2 µM in data set [2] (Homo sapiens, Fibroblast). The “SI (SCC-9)” value in data set [1] is on record as 1.0. Also, the “average SI” value in [5] is listed as 2.0.

Regarding `N.N.O=C([O-])C1(C(=O)[O-])CCC1.[Pt+2]` [Carboplatin, carboplatin, reference compound], the “selective index (SI) HepG2 hepatocellular carcinoma” value in data set [6] is 7.1. Besides, in data set [7], the “selective index (SI) B16-F10 melanoma” value is reported as 5.5. Besides, the IC50 amounted to 49.8 µM in data set [1] (72 h, MTT, read-out: IC50 SCC-9 oral cancer); 27.7 µM in data set [3] (72 h, MTT); 38.3 µM in [4] (72 h, MTT); 128 µM in data set [2] (MTT). In addition, in [1], the “SI (SCC-9)” value amounted to 2.6. Moreover, the “selective index (SI) HCT-116 colon cancer” value in data set [8] is reported as 2.5. Besides, in data set [9], the “% Hemolysis (Mean ± SD)” value is recorded as 1.34 ± 0.10%. The “selective index (SI) SCC-4” value in data set [3] (vs normal oral fibroblasts) came out at 4.6. For the same molecule, the “selective index (SI) SCC-25” value in data set [4] (vs normal oral fibroblasts) is given as 3.3. For the same molecule, the “average SI” value in data set [5] is 3.5.

As for `Cc1cccc(SC2C3=C(OC(C)(C)C2Sc2cccc(C)c2)C(=O)c2ccccc2C3=O)c1` (centres unmarked) [7c, 2,2-Dimethyl-3,4-bis(m-tolylthio)-3,4-dihydro-2H-benzo[g]chromene-5,10-dione], the IC50 came out at 15.3 µM in data set [1] (setting [11]); 30.2 µM in data set [3] (Homo sapiens, SCC-4, 72 h, MTT); 31.8 µM in data set [4] (Homo sapiens, SCC-25, 72 h, MTT); 40.8 µM in [2] (Homo sapiens, Fibroblast, MTT). Also, the “SI (SCC-9)” value in data set [1] is reported as 2.7. For the same molecule, in data set [5], the “average SI” value stood at 1.8.

Consider `Cc1ccc(SC2C3=C(OC(C)(C)C2Sc2ccc(C)cc2)C(=O)c2ccccc2C3=O)cc1` (centres unmarked) [7d, 2,2-Dimethyl-3,4-bis(p-tolylthio)-3,4-dihydro-2H-benzo[g]chromene-5,10-dione], for which the IC50 in data set [1] (setting [11]) was determined as 30.9 µM; in [2] (Homo sapiens, Fibroblast, MTT) it was 60.1 µM. Besides, the “SI (SCC-9)” value in data set [1] was determined as 1.9.

Regarding Triton X-100, in data set [9], the “% Hemolysis (Mean ± SD)” value is 100% and 99.6 ± 2.51%.

On to `CC(C)=CCC1=C(O)C(=O)c2ccccc2C1=O` [lapachol], for which the IC50 in [10] is 2 µM.

As for `Cc1ccccc1SC1C2=C(OC(C)(C)C1Sc1ccccc1C)C(=O)c1ccccc1C2=O` (centres unmarked) [7b, 2,2-Dimethyl-3,4-bis(o-tolylthio)-3,4-dihydro-2H-benzo[g]chromene-5,10-dione], the IC50 turned out to be 34.8 µM in data set [1] (setting [11]) and 50.9 µM in data set [2] (Homo sapiens, Fibroblast, MTT). Besides, the “SI (SCC-9)” value in [1] stood at 1.5.

Take `CC1(C)OC2=C(C(=O)c3ccccc3C2=O)C(Sc2ccc(O)cc2)C1Sc1ccc(O)cc1` (centres unmarked) [7i, 3,4-Bis((4-hydroxyphenyl)thio)-2,2-dimethyl-3,4-dihydro-2H-benzo[g]chromene-5,10-dione]: the IC50 was 17.2 µM in [1] (setting [11]) and 32.6 µM in [2] (Homo sapiens, Fibroblast, MTT). Moreover, the “SI (SCC-9)” value in data set [1] amounted to 1.9.

Turning to `CC1(C)OC2=C(C(=O)c3ccccc3C2=O)C(Sc2ccc(Cl)cc2)C1Sc1ccc(Cl)cc1` (centres unmarked) [7h, 3,4-Bis((4-chlorophenyl)thio)-2,2-dimethyl-3,4-dihydro-2H-benzo[g]chromene-5,10-dione], the IC50 in [1] (setting [11]) amounted to 33.3 µM; in data set [2] (Homo sapiens, Fibroblast, MTT) it was 43 µM. For the same molecule, the “SI (SCC-9)” value in data set [1] came out at 1.3.
